Results as given in the supplement of paper PMC10326909.

Test: ESI positive response factor (isotope-corrected peak area per molar concentration) in SFC/ESI/HRMS (area units per M); higher = higher ionization efficiency
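Also: standards in acetonitrile/water run in triplicate on a zwitterionic HILIC column, CO2–methanol gradient containing 20 mmol/L ammonium acetate, postcolumn makeup flow, Orbitrap full-scan detection.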

Row | Compound | ESI positive response factor (0.035 µM) | ESI positive response factor (0.0875 µM) | ESI positive response factor (0.175 µM) | ESI positive response factor (0.35 µM) | ESI positive response factor (0.0175 µM) | other results
1 | CCSC(=O)N1CCCCCC1 [Molinate] |  |  |  |  |  | ESI positive response factor (0.061 µM): 1.56e+16; ESI positive response factor (0.122 µM): 1.94e+16; ESI positive response factor (0.244 µM): 2e+16; ESI positive response factor (0.61 µM): 1.59e+16; ESI positive response factor (1.22 µM): 1.93e+16
2 | CN(C)C(=O)Nc1ccc(Cl)cc1 [Monuron] |  |  |  |  |  | ESI positive response factor (0.0122 µM): 2.43e+16; ESI positive response factor (0.0244 µM): 2.85e+16; ESI positive response factor (0.061 µM): 3.31e+16; ESI positive response factor (0.122 µM): 3.07e+16; ESI positive response factor (0.244 µM): 3.26e+16
3 | N=C(N=C(N)N)N1CCOCC1 [Moroxydine] |  |  |  |  |  | ESI positive response factor (0.0122 µM): 1.51e+17; ESI positive response factor (0.0244 µM): 1.7e+17; ESI positive response factor (0.061 µM): 1.94e+17; ESI positive response factor (0.122 µM): 1.92e+17; ESI positive response factor (0.244 µM): 1.97e+17
4 | CC(=O)NCCNC(C)=O [N,N'-Ethylenebisacetamide] | 4.39e+16 | 4.04e+16 | 3.9e+16 | 3.89e+16 |  | 
5 | O=C1NCCCN1 [N,N?-Trimethyleneurea] |  |  |  |  |  | ESI positive response factor (0.0122 µM): 2.53e+16; ESI positive response factor (0.0244 µM): 3.89e+16; ESI positive response factor (0.061 µM): 3.96e+16
6 | CC(=O)NCCCCC(N)C(=O)O [N?-Acetyl-L-lysine] |  |  |  | 8.93e+15 |  | ESI positive response factor (0.875 µM): 9.29e+15; ESI positive response factor (1.75 µM): 9.24e+15
7 | COc1ccc2cc(C(C)C(=O)O)ccc2c1 (stereo not given) [Naproxen] | 7.47e+15 | 7.04e+15 | 6.98e+15 | 6.96e+15 |  | 
8 | CNC(=O)CSP(=O)(OC)OC [Omethoate] | 3.37e+16 | 3.65e+16 | 3.18e+16 | 3.93e+16 | 2.18e+16 | 
9 | COCC(=O)N(c1c(C)cccc1C)N1CCOC1=O [Oxadixyl] | 1.43e+17 | 1.57e+17 | 1.23e+17 | 1.48e+17 | 1.33e+17 | 
10 | COc1ccc(C(=O)c2ccccc2)c(O)c1 [Oxybenzone] | 1.88e+17 | 1.67e+17 |  |  | 1.73e+17 | 
11 | O=c1nc2[nH][nH]cc-2c(=O)[nH]1 [Oxypurinol] |  |  |  |  |  | ESI positive response factor (0.875 µM): 5.5e+14; ESI positive response factor (1.75 µM): 4.78e+14
12 | CC(C)(CO)[C@@H](O)C(=O)NCCCO [Panthenol] |  |  |  |  |  | ESI positive response factor (0.0122 µM): 5.93e+16; ESI positive response factor (0.0244 µM): 6.23e+16; ESI positive response factor (0.061 µM): 6.32e+16; ESI positive response factor (0.122 µM): 6.16e+16; ESI positive response factor (0.244 µM): 6.31e+16
13 | NC(N)=NC(N)=NCCc1ccccc1 [Phenformin] | 3.42e+17 | 3.34e+17 | 3.21e+17 | 3.4e+17 | 2.9e+17 | 
14 | COC=C(C(=O)OC)c1ccccc1COc1cccc(C(F)(F)F)n1 [Picoxystrobin] | 2.82e+17 | 2.61e+17 | 2.25e+17 | 2.47e+17 | 2.81e+17 | 
15 | NC(=O)C1(N2CCCCC2)CCN(CCCC(=O)c2ccc(F)cc2)CC1 [Pipamperone] | 5.01e+17 | 5.44e+17 | 5.09e+17 |  | 4.81e+17 | 
16 | CC(C)C[C@H](CN)CC(=O)O [Pregabalin] |  | 1.96e+16 | 1.55e+16 | 1.8e+16 |  | ESI positive response factor (0.875 µM): 1.58e+16; ESI positive response factor (1.75 µM): 1.57e+16
17 | CCC1(c2ccccc2)C(=O)NCNC1=O [Primidone] | 1.09e+17 | 1.15e+17 | 9.69e+16 | 1.08e+17 | 8.94e+16 | 
18 | COC(=O)N(OC)c1ccccc1COc1ccn(-c2ccc(Cl)cc2)n1 [Pyraclostrobin] | 5.71e+17 | 5.45e+17 | 4.73e+17 | 5.43e+17 | 6.62e+17 | 
19 | Fc1ccc(Oc2ccnc3cc(Cl)cc(Cl)c23)cc1 [Quinoxyfen] | 1.08e+18 | 9.74e+17 | 9.43e+17 |  | 9.87e+17 | 
20 | Cc1cc2nc3c(=O)[nH]c(=O)nc-3n(CC(O)C(O)C(O)CO)c2cc1C (stereo not given) [Riboflavin] |  |  | 2.66e+15 | 3.31e+15 |  | ESI positive response factor (0.875 µM): 3.41e+15; ESI positive response factor (1.75 µM): 3.53e+15
21 | O=C(O)C(c1ccccc1)C1CCCCN1 (stereo not given) [Ritalinic acid] | 1.26e+17 | 1.24e+17 | 1.12e+17 | 1.31e+17 |  | ESI positive response factor (0.875 µM): 1.17e+17; ESI positive response factor (1.75 µM): 1.26e+17
22 | CC(C)NCC(O)c1ccc(NS(C)(=O)=O)cc1 (stereo not given) [Sotalol] | 2.68e+17 | 2.59e+17 |  |  | 2.28e+17 | 
